Results as given in US20100249419A1, “UTILIZATION OF NOVEL COMPOUNDS WITH AMYLOID AFFINITY AND METHOD OF PRODUCING THE SAME” (NIHON MEDI-PHYSICS CO., LTD., priority 2007, published 2010).

Tests used:
[1] = system: Salmonella typhimurium TA98; assay: Reverse mutation test (Ames test), TA98; assay type: cell-based
Protocol: (§1) In order to examine gene mutagenicity of Compounds 3, 5 and 8, reverse mutation test using Salmonella typhimurium TA98 and TA100 (hereinafter referred to as Ames test) was conducted.
(§2) The test was conducted without addition of S9mix and with addition of S9mix. Dimethylsulfoxide (hereinafter referred to as DMSO) was used as a negative control. A positive control was 2-(2-furyl)-3-(5-nitro-2-furyl)acrylamide (hereinafter referred to as AF-2) in case S9mix was not added, and 2-aminoanthracene (hereinafter referred to as 2-AA) in case S9mix was added.
(§3) As a sample solution to be added to a test plate, each compound was dissolved in DMSO to prepare a solution at a concentration of 50 mg/mL, and further, each solution was diluted with DMSO to prepare a solution with 7 dosage (geometric ratio 3). As a sample solution for preparing a sample of positive control, when TA98 was used as a test strain without addition of S9mix, a solution of AF-2 (compound concentration: 1 μg/mL) in DMSO was prepared; when TA100 was used as a test strain without addition of S9mix, a solution of AF-2 (compound concentration: 0.1 μg/mL) in DMSO was prepared; when TA98 was used as a test strain with addition of S9mix, a solution of 2-AA (compound concentration: 5 μg/mL) in DMSO was prepared; and when TA100 was used as a test strain with addition of S9mix, a solution of 2-AA (compound concentration: 10 μg/mL) in DMSO was prepared.
(§4) After each sample solution to be examined and a test strain (TA98 or TA100) were mixed together so as to make the addition amount of each sample to be 0.1 mL/plate, the mixture was multilayered using soft agar on a medium of a test plate, and then incubated at 37° C. for 48 hours. Separately, after each sample solution to be examined, S9mix and a test strain were mixed together so as to make the addition amount of each sample to be 0.1 mL/plate, the mixture was multilayered using soft agar on a medium of a test plate, and then incubated at 37° C. for 48 hours. On the other hand, only DMSO was used as a sample solution to perform the same procedure as above for the negative control. […]

[2] = system: bone marrow cells of Crlj:CD1(ICR) male mouse; assay: Micronucleus test; assay type: in vivo; conditions: single oral administration 250-2000 mg/kg, 24 and 48 hours
Protocol: In order to study mutagenicity (in vivo) of Compounds 3 and 7, induction of micronucleated polychromatic erythrocyte (hereinafter referred to as MNPCE) was examined using bone marrow cells of Crlj:CD1(ICR) male mouse.
0 mg/kg (negative control group), 250, 500, 1000 and 2000 mg/kg (test sample group) were set as doses for the test. Mice were sacrificed 24 and 48 hours after single oral administration, and bone marrow smear was prepared and observed. Further, a single dose of MMC at 2 mg/kg was abdominally administrated in positive control group, mice were sacrificed 24 hours after the administration, and then bone marrow smear was prepared and observed.
As statistical analysis, significance tests were conducted by Wilcoxon rank sum test for the appearance frequency of MNPCE and the ratio of polychromatic erythrocyte (hereinafter referred to as PCE) to the total red blood cell (hereinafter referred to as RBC) in each administration group concerning the test sample and positive control groups relative to the negative control group and concerning these groups relative to each other where the significance level was set to less than 5% and less than 1%, respectively.

[3] = system: Salmonella typhimurium TA100; assay: Reverse mutation test (Ames test), TA100; assay type: cell-based
Protocol: as §1, §2, §3, §4

[4] = Partition coefficient based on the octanol extraction method; assay type: physicochemical; conditions: octanol / 10 mmol/L phosphate buffer (pH 7.4)
Protocol: Partition coefficients based on the octanol extraction method (hereinafter referred to as log Poctanol) were measured, which are generally known as an indicator of permeability of compounds through the blood-brain barrier (hereinafter referred to as BBB).
A diethyl ether solution of Compound 1 prepared in Example 3 (Example 8), a diethyl ether solution of Compound 2 prepared in Example 6 (Example 9), and a diethyl ether solution of [^123I]-IMPY prepared in Reference Example 1 (Comparative Example 4) were each diluted with 10 mg/mL ascorbic acid-containing physiological saline solution, and adjusted to a radioactive concentration of 20-30 MBq/mL. To 2 mL of octanol, 10 μL each of the prepared sample solutions was added, 2 mL of 10 mmol/L phosphate buffer (pH 7.4) was added, followed by stirring for 30 seconds. After the mixture was centrifuged with a low-speed centrifuge (2000 rpm×60 min.), the octanol layer and the water layer were sampled each in an amount of 1 mL, and subjected to measurement of radioactivity count with an autowell gamma system (Type: ARC-301B, manufactured by Aloka). Using the obtained radioactivity count, log Poctanol was calculated in accordance with the equation (2).
A diethyl ether solution (Example 20) of Compound 4 prepared in Example 16, a diethyl ether solution (Example 21) of Compound 6 prepared in Example 19, and a diethyl ether solution (Comparative Example 7) of [^123I]-IMPY were each diluted with a 10 mg/mL ascorbic acid-containing physiological saline solution to adjust to a radioactive concentration of 20-30 MBq/mL. To 2 mL of octanol, 10 μL each of the prepared sample solution was added, and 2 mL of 10 mmol/L phosphate buffer (pH 7.4) was further added, followed by stirring for 30 seconds. After the mixture was centrifuged with a low-speed centrifuge (2000 rpm×60 min.), the octanol layer and the water layer were sampled each in an amount of 1 mL, and subjected to measurement of radioactivity count with an autowell gamma system (Type: ARC-301B, manufactured by Aloka). Using the obtained radioactivity count, logPoctanol was calculated in accordance with the equation (4).

[5] = Transferability into brain and clearance; assay type: in vivo, male Wistar rats; conditions: intravenous injection, rats
Protocol: Using Compound 1 (Example 10) and Compound 2 (Example 11), a time course change of radioactive accumulation in brain of male Wistar rats (7-week old) was measured.
A diethyl ether solution of Compound 1 (Example 10) prepared in Example 3, a diethyl ether solution of Compound 2 (Example 11) prepared in Example 6 and a diethyl ether solution of [^123I]-IMPY (Comparative Example 5) prepared in Reference Example 1 were each diluted with 10 mg/mL ascorbic acid-containing physiological saline solution to adjust to a radioactive concentration of 8-12 MBq/mL. 0.05 mL each of the prepared sample solutions was injected under thiopental anesthesia into the tail vein of the rats. The rats were sacrificed by bleeding from abdominal artery, and brains were removed and subjected to measurement of mass of brains and further subjected to measurement of radioactivity (hereinafter referred to as A in this Example) with a single channel analyzer (detector type: SP-20 manufactured by OHYO KOKEN KOGYO Co., Ltd.) 2, 5, 30 and 60 minutes after the injection. Further, the radioactivity level of the rest of the whole body was measured in the same manner as above (hereinafter referred to as B in this Example). Using these measurement results, radioactive distribution per unit weight of brain (% ID/g) at the respective time points were calculated in accordance with the following formula (3).
Three animals were used for the experiment at the respective time points.
Using Compound 4 and Compound 6, a time course change of radioactive accumulation in brain of male Wistar rats (7-week old) was measured.
Compound 4 (Example 22), Compound 6 (Example 23) and a solution of [^123I]-IMPY (Comparative Example 8) prepared above in Reference Example 1 were each diluted with a 10 mg/mL ascorbic acid-containing physiological saline solution to prepare solutions (20-31 MBq/mL in radioactive concentration). 0.05 mL each of the prepared sample solutions was injected under thiopental anesthesia into the tail vein of the respective Wistar rat (7-week old). The rats were sacrificed by bleeding from abdominal artery, and brains were removed and subjected to measurement of mass of brains and further subjected to measurement of radioactivity (hereinafter referred to as A in this Example) with a single channel analyzer (detector type: SP-20 manufactured by OHYO KOKEN KOGYO Co., Ltd.) 2, 5, 30 and 60 minutes after the injection. Further, the radioactivity level of the rest of the whole body was measured in the same manner as above (hereinafter referred to as B in this Example). Using these measurement results, radioactive distribution per unit weight of brain (% ID/g) at the respective time points were calculated in accordance with the following formula (5).

[6] = target: T1, aggregated Aβ (Aβ1-40) injected into amygdaloid nucleus (Homo sapiens, UniProt P05067); assay: Ex vivo autoradiogram using rats of amyloid injected model (Aβ1-40); assay type: in vivo, male Wistar rat; conditions: brain slice 60 minutes after tail vein injection
T1 construct: Aβ1-40 (manufactured by Peptide Institute, INC.) was dissolved in phosphate buffer (pH 7.4); purchased Peptide Institute, INC
T1 sequence (P05067 672-711): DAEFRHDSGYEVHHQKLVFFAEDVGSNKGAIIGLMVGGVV
Protocol: (1) Aβ1-40 (manufactured by Peptide Institute, INC.) was dissolved in phosphate buffer (pH 7.4) and shaken at 37° C. for 72 hours, to obtain a 1 mg/mL suspension of aggregated Aβ (hereinafter referred to as amyloid suspension in this Example).
(2) 2.5 μL (corresponding to […]) of the amyloid suspension was injected into an amygdaloid nucleus on one side of a male Wistar rat (7-week old). As a control, 2.5 μL of a phosphate buffered physiological saline solution (pH 7.4) was injected into an amygdaloid nucleus on the other side of the rat. The rats were examined 1 day after the injection of the amyloid suspension and the phosphate buffered physiological saline solution (pH 7.4).
(3) [^123I]-IMPY was dissolved in a 10 mg/mL ascorbic acid-containing physiological saline solution to obtain a sample solution (29 MBq/mL in radioactivity concentration in the sample solution). This solution was injected under thiopental anesthesia into the rat through the tail vein (dosage: 0.5 mL, dosed radioactivity: 14.5 MBq equivalent).
(4) Brain was removed 60 minutes after the injection to prepare a brain slice of 10 μm in thickness with a microtome (type: CM3050S, manufactured by LEICA). The brain slice was exposed to an imaging plate for 20 hours, and then image analysis was carried out by use of a Bio-imaging Analyzer (type: BAS-2500; manufactured by FUJIFILM Corporation). […]

[7] = [^11C]-labeled, rats; cited from earlier work
[8] = target: T2, aggregated Aβ (Aβ1-42) amyloid (Homo sapiens, UniProt P05067); assay: In vitro binding test: inhibition of [^125I]3′-I-BTA-0 binding to amyloid
T2 construct: Aβ1-42 (manufactured by Wako) was dissolved in phosphate buffer (pH 7.4); purchased Wako
T2 sequence (P05067 672-713): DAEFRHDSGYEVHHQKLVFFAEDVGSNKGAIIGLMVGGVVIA
Protocol: Affinity of the present compounds with amyloid was examined by the following in vitro binding tests.
The measured radioactivity level was defined as the background radioactivity level, and used in the calculation of the inhibition ratio (hereinafter referred to as BG).
(9) Using the radioactivity levels measured above in (7) and (8), the inhibition ratio was determined by the following formula (1).
A graph in which values converted by probit transformation from the obtained inhibition ratios were plotted relative to logarithms of concentrations of compounds for evaluation was prepared to obtain an approximate straight line by the least square method.

[9] = TA98, without addition of S9mix
[10] = TA100, without addition of S9mix

SMILES: OCCCOc1ccc(-c2cn3cc(I)ccc3n2)cc1 [Compound 7, 2-[4′-(3″-hydroxypropoxy)phenyl]-6-iodoimidazo[1,2-a]pyridine]
- Mutagenicity ([1]; TA98, with addition of S9mix): Negative
- Mutagenicity [1, 9]: Negative
- Mutagenicity (in vivo), induction of MNPCE [2]: negative
- Mutagenicity ([3]; TA100, with addition of S9mix): Negative
- Mutagenicity [3, 10]: Negative

SMILES: CN(C)c1ccc(-c2cn3cc([123I])ccc3n2)cc1 [[^123I]-IMPY, reference compound]
- logPoctanol value ([4]; Table 4, Examples 8-9): 1.9
- logPoctanol value ([4]; Table 6, Examples 20-21): 2.1
- Radioactive distribution per unit weight of brain ([5]; After 2 min., Table 5): 1.19 % ID/g
- Radioactive distribution per unit weight of brain ([5]; After 2 min., Table 7): 1.19 % ID/g
- Radioactive distribution per unit weight of brain ([5]; After 5 min., Table 5): 0.97 % ID/g
- Radioactive distribution per unit weight of brain ([5]; After 5 min., Table 7): 0.97 % ID/g
- Radioactive distribution per unit weight of brain ([5]; After 30 min., Table 5): 0.23 % ID/g
- Radioactive distribution per unit weight of brain ([5]; After 30 min., Table 7): 0.23 % ID/g
- Radioactive distribution per unit weight of brain ([5]; After 60 min., Table 5): 0.09 % ID/g
- Radioactive distribution per unit weight of brain ([5]; After 60 min., Table 7): 0.09 % ID/g
- Accumulation of radioactivity in amygdaloid nucleus on the amyloid-injected side [6]: marked accumulation of radioactivity

SMILES: CNc1ccc(/C=C/c2ccc(O)cc2)cc1 [SB-13, (E)-4-methylamino-4′-hydroxystilbene]
- Clearance from normal tissues [7]: it cannot be said that the clearance is sufficiently fast

SMILES: OCCOc1ccc(-c2cn3cc(I)ccc3n2)cc1 [Compound 3, 2-[4′-(2″-hydroxyethoxy)phenyl]-6-iodoimidazo[1,2-a]pyridine]
- Mutagenicity ([1]; TA98, with addition of S9mix): Negative
- Mutagenicity [1, 9]: Negative
- Mutagenicity (in vivo), induction of MNPCE [2]: negative
- Mutagenicity ([3]; TA100, with addition of S9mix): Negative
- Mutagenicity [3, 10]: Negative
- IC50 ([8]; [^125I]3′-I-BTA-0 400 pmol/L, amyloid 1 μmol/L, 22° C., 3 hours): 66.9 nM
- IC50 ([8]; unit inferred): < 100 nM
